# Source: ChEMBL document CHEMBL5344429, “1,3-Substituted β-Carboline Derivatives as Potent Chemotherapy for the Treatment of Cystic Echinococcosis” (J Med Chem, 2023)
# Activity calls are given as the source filed them. No cut-off for these calls is given here.
# Tests used:
# Echinococcus granulosus [1] = test: Parasiticidal activity against Echinococcus granulosus microcyst infected in kunming mouse assessed as mean cyst weight at 50 mg/kg, ip administered for 14 days; type: functional; details: time 14 day
# Echinococcus granulosus [2] = test: Parasiticidal activity against Echinococcus granulosus protoscolices […] by eosin exclusion test; type: functional; details: 1152 h, time 48 day
# [3] = Neurotoxicity in Kunming mouse assessed as deformed pyramidal cells in brain at 50 mg/kg, ip administered for 28 days by H and E staining based assay; type: toxicity, organism-based; details: in vivo, 672 h, time 28 day
# [4] = Neurotoxicity in Kunming mouse assessed as increased postsynaptic density in hippocampal at 50 mg/kg, ip administered for 28 days by TEM analysis; type: toxicity, organism-based; details: in vivo, 672 h, time 28 day
# Echinococcus granulosus [5] = test: Parasiticidal activity against Echinococcus granulosus protoscolices assessed as body shrank with irregular edge at 5 uM incubated for 4 days by H and E staining based assay; type: functional, organism-based; details: time 4.0 day
# Echinococcus granulosus [6] = test: Parasiticidal activity against Echinococcus granulosus microcyst infected in kunming mouse assessed as reduction in cyst weight at 50 mg/kg, ip administered for 14 days relative to control; type: functional; parameters: scale not given: the % may be the effect or the level left; details: time 14 day
# Echinococcus granulosus [7] = test: Parasiticidal activity against intraperitoneal cystic Echinococcus granulosus infected in Kunming mouse assessed as decrease number of microvilli at 50 mg/kg, ip administered for 28 days by TEM analysis; type: functional, organism-based; details: time 28.0 day
# [8] = Neurotoxicity in Kunming mouse assessed as swollen pyramidal cells in brain at 50 mg/kg, ip administered for 28 days by H and E staining based assay; type: toxicity, organism-based; details: in vivo, 672 h, time 28 day
# Echinococcus granulosus [9] = test: Parasiticidal activity against Echinococcus granulosus protoscolices assessed as outer skin and hooks fall off at 5 uM incubated for 2 days by scanning electron microscopy; type: functional, organism-based; details: time 2.0 day
# Echinococcus granulosus [10] = test: Parasiticidal activity against Echinococcus granulosus microcyst infected in kunming mouse assessed as mean cyst weight at 12.5 mg/kg, ip administered for 14 days; type: functional; details: time 14 day
# [11] = Neurotoxicity in Kunming mouse assessed as blurred synaptic space in hippocampal at 50 mg/kg, ip administered for 28 days by TEM analysis; type: toxicity, organism-based; details: in vivo, 672 h, time 28 day
# Echinococcus granulosus [12] = test: Parasiticidal activity against Echinococcus granulosus microcyst infected in kunming mouse assessed as reduction in cyst weight at 25 mg/kg, ip administered for 28 days relative to control; type: functional; parameters: scale not given: the % may be the effect or the level left; details: time 28 day
# Echinococcus granulosus [13] = test: Parasiticidal activity against Echinococcus granulosus protoscolices assessed as appearance of relative completion of sucker at 5 uM incubated for 2 days by scanning electron microscopy; type: functional, organism-based; details: time 2.0 day
# Echinococcus granulosus [14] = test: Parasiticidal activity against Echinococcus granulosus microcyst infected in kunming mouse assessed as reduction in cyst weight at 12.5 mg/kg, ip administered for 14 days relative to control; type: functional; parameters: scale not given: the % may be the effect or the level left; details: time 14 day
# Echinococcus granulosus [15] = test: Parasiticidal activity against Echinococcus granulosus assessed as cyst destruction at 100 uM incubated for 4 days by scanning electron microscopy; type: functional, organism-based; details: time 4.0 day
# Echinococcus granulosus [16] = test: Parasiticidal activity against Echinococcus granulosus microcyst infected in kunming mouse assessed as reduction in cyst weight at 12.5 mg/kg, ip administered for 28 days relative to control; type: functional; parameters: scale not given: the % may be the effect or the level left; details: time 28 day
# Echinococcus granulosus [17] = test: Induction of autophagy in Echinococcus granulosus protoscolices assessed as increase in Beclin1 expression level at 5 uM measured after 4 days by Western blot analysis; type: functional, organism-based; details: time 4.0 day
# Echinococcus granulosus [18] = test: Parasiticidal activity against Echinococcus granulosus protoscolices assessed as survival rate at 1 uM incubated for 48 hrs by eosin exclusion test; type: functional
# [19] = Neurotoxicity in Kunming mouse assessed as widened perinuclear space in hippocampal neurons at 50 mg/kg, ip administered for 28 days by TEM analysis; type: toxicity, organism-based; details: in vivo, 672 h, time 28 day
# Echinococcus granulosus [20] = test: Parasiticidal activity against Echinococcus granulosus microcyst infected in kunming mouse assessed as mean cyst weight at 50 mg/kg, ip administered for 28 days; type: functional; details: time 28 day
# Echinococcus granulosus [21] = test: Parasiticidal activity against intraperitoneal cystic Echinococcus granulosus infected in Kunming mouse assessed as reduction in cell count with clear nucleolus at 50 mg/kg, ip administered for 28 days by TEM analysis; type: functional, organism-based; details: time 28.0 day
# Echinococcus granulosus [22] = test: Parasiticidal activity against Echinococcus granulosus microcyst infected in kunming mouse assessed as mean cyst weight at 12.5 mg/kg, ip administered for 28 days; type: functional; details: time 28 day
# [23] = Neurotoxicity in Kunming mouse assessed as partial cristae in hippocampal at 50 mg/kg, ip administered for 28 days by TEM analysis; type: toxicity, organism-based; details: in vivo, 672 h, time 28 day
# [24] = Neurotoxicity in Kunming mouse assessed as loosely arranged pyramidal cells in brain at 50 mg/kg, ip administered for 28 days by H and E staining based assay; type: toxicity, organism-based; details: in vivo, 672 h, time 28 day
# Echinococcus granulosus [25] = test: Parasiticidal activity against Echinococcus granulosus protoscolices assessed as appearance of partial shedding at 5 uM incubated for 4 days by H and E staining based assay; type: functional, organism-based; details: time 4.0 day
# Echinococcus granulosus [26] = test: Parasiticidal activity against Echinococcus granulosus microcyst infected in kunming mouse assessed as mean cyst weight at 25 mg/kg, ip administered for 14 days; type: functional; details: time 14 day
# Echinococcus granulosus [27] = test: Parasiticidal activity against Echinococcus granulosus microcyst infected in kunming mouse assessed as mean cyst weight at 25 mg/kg, ip administered for 28 days; type: functional; details: time 28 day
# Echinococcus granulosus [28] = test: Parasiticidal activity against Echinococcus granulosus microcyst infected in kunming mouse assessed as reduction in cyst weight at 25 mg/kg, ip administered for 14 days relative to control; type: functional; parameters: scale not given: the % may be the effect or the level left; details: time 14 day
# Echinococcus granulosus [29] = test: Induction of autophagy in Echinococcus granulosus protoscolices assessed as decrease in p62 expression level at 5 uM measured after 4 days by Western blot analysis; type: functional, organism-based; details: time 4.0 day
# Echinococcus granulosus [30] = test: Parasiticidal activity against intraperitoneal cystic Echinococcus granulosus infected in Kunming mouse assessed as appearance of unclear cortex at 50 mg/kg, ip administered for 28 days by TEM analysis; type: functional, organism-based; details: time 28.0 day
# Echinococcus granulosus [31] = test: Parasiticidal activity against Echinococcus granulosus microcyst infected in kunming mouse assessed as reduction in cyst weight at 50 mg/kg, ip administered for 28 days relative to control; type: functional; parameters: scale not given: the % may be the effect or the level left; details: time 28 day
# [32] = Neurotoxicity in Kunming mouse assessed as incomplete mitochondrial membrane in hippocampal at 50 mg/kg, ip administered for 28 days by TEM analysis; type: toxicity, organism-based; details: in vivo, 672 h, time 28 day
# Echinococcus granulosus [33] = test: Induction of autophagy in Echinococcus granulosus protoscolices assessed as increase in ATG5 expression level at 5 uM measured after 4 days by Western blot analysis; type: functional, organism-based; details: time 4.0 day
compound,measurement,setting,value
COc1ccc2c(c1)[nH]c1c(C)nccc12 [HARMINE],Activity,Echinococcus granulosus [1],22.7 mg
same,LC50,Echinococcus granulosus [2],135 µM
same,Activity,[3],Toxic
same,Activity,[4],Toxic
same,Activity,Echinococcus granulosus [5],Active
same,Activity,Echinococcus granulosus [6],55.97%
same,Activity,Echinococcus granulosus [7],Active
same,Activity,[8],Toxic
same,Activity,Echinococcus granulosus [9],Active
same,Activity,Echinococcus granulosus [10],27.8 mg
same,Activity,[11],Toxic
same,Activity,Echinococcus granulosus [12],54.4%
same,Activity,Echinococcus granulosus [13],Active
same,Activity,Echinococcus granulosus [14],46.13%
same,Activity,Echinococcus granulosus [15],inactive
same,Activity,Echinococcus granulosus [16],67.17%
same,Activity,Echinococcus granulosus [17],Active
same,Activity,Echinococcus granulosus [18],100%
same,Activity,[19],Toxic
same,Activity,Echinococcus granulosus [20],23.4 mg
same,Activity,Echinococcus granulosus [21],Active
same,Activity,Echinococcus granulosus [22],26.6 mg
same,Activity,[23],Toxic
same,Activity,[24],Toxic
same,Activity,Echinococcus granulosus [25],Active
same,Activity,Echinococcus granulosus [26],25.1 mg
same,Activity,Echinococcus granulosus [27],24.8 mg
same,Activity,Echinococcus granulosus [28],51.2%
same,Activity,Echinococcus granulosus [29],Active
same,Activity,Echinococcus granulosus [30],Active
same,Activity,Echinococcus granulosus [31],56.93%
same,Activity,[32],Toxic
same,Activity,Echinococcus granulosus [33],Active
